Source: ChEMBL document CHEMBL1132762, “RGD mimetics containing a central hydantoin scaffold: alpkha(v)beta3 vs alpha(IIb)beta3 selectivity requirements” (Bioorg Med Chem Lett, 2000)

Legend:
Integrin alpha-V/beta-3 = Integrin alpha-V/beta-3 (Homo sapiens, UniProt P05106+P06756); experiment: Inhibition of Kistrin binding to integrin alphaV-beta3; assay type: protein-complex assay
[1] = molecular target: Integrin alpha-IIb/beta-3 (Homo sapiens, UniProt P05106+P08514); experiment: Inhibition of fibrinogen binding to integrin alphaIIb-beta3; assay type: protein-complex assay
Sequence of Integrin alpha-IIb/beta-3 (P05106 27-788 limits assumed): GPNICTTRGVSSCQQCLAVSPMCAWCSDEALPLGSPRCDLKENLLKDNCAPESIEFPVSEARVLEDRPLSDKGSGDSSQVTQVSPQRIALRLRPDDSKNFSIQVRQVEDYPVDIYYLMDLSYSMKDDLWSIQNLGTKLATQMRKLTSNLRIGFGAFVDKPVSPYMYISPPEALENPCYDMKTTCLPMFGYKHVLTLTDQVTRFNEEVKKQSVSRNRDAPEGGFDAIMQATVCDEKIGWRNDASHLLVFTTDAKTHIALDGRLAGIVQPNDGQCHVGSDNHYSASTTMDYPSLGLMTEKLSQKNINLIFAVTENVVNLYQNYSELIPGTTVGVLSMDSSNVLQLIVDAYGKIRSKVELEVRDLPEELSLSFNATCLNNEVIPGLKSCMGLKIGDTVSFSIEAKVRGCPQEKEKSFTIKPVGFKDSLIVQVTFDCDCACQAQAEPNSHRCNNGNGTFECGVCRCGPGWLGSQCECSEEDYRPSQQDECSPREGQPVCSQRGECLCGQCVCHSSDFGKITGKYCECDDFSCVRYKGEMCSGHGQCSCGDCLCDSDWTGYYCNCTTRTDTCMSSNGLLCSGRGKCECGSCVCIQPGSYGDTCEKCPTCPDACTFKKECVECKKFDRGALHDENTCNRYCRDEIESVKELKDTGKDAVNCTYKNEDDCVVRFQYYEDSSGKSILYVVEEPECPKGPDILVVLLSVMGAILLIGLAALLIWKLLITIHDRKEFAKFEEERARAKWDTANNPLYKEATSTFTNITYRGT
Sequence of Integrin alpha-IIb/beta-3 (P08514 32-887 limits assumed): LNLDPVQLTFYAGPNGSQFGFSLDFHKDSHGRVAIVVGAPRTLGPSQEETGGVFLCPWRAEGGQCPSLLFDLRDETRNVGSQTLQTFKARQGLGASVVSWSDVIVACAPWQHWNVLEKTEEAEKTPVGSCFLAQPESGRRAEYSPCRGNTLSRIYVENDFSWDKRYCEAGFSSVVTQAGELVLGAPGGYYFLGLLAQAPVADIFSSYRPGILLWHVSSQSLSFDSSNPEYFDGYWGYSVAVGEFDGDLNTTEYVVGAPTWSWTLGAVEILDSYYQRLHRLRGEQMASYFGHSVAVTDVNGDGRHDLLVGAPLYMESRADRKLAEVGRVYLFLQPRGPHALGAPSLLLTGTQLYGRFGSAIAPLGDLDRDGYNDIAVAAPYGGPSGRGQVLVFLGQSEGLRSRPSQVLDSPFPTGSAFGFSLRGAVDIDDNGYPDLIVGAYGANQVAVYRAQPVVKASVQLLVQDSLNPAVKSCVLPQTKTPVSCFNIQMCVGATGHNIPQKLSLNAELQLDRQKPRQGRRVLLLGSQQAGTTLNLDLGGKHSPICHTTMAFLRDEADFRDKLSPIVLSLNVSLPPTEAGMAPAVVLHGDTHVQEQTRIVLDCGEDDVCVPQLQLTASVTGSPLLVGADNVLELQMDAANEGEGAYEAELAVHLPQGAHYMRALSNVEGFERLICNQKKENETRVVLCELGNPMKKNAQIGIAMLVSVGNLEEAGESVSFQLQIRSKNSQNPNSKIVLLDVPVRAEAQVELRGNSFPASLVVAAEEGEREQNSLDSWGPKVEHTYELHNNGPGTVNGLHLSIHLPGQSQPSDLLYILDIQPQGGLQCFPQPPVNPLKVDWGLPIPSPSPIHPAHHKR
Sequence of Integrin alpha-IIb/beta-3 (P08514 891-1039 limits assumed): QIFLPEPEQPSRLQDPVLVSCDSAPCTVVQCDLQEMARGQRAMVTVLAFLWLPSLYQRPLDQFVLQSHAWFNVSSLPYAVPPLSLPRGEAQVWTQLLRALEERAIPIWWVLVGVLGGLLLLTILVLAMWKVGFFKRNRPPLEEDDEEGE

Sequence of Integrin alpha-V/beta-3 (P05106 27-788 limits assumed): as the sequence (P05106 27-788 limits assumed) above
Sequence of Integrin alpha-V/beta-3 (P06756 31-889 limits assumed): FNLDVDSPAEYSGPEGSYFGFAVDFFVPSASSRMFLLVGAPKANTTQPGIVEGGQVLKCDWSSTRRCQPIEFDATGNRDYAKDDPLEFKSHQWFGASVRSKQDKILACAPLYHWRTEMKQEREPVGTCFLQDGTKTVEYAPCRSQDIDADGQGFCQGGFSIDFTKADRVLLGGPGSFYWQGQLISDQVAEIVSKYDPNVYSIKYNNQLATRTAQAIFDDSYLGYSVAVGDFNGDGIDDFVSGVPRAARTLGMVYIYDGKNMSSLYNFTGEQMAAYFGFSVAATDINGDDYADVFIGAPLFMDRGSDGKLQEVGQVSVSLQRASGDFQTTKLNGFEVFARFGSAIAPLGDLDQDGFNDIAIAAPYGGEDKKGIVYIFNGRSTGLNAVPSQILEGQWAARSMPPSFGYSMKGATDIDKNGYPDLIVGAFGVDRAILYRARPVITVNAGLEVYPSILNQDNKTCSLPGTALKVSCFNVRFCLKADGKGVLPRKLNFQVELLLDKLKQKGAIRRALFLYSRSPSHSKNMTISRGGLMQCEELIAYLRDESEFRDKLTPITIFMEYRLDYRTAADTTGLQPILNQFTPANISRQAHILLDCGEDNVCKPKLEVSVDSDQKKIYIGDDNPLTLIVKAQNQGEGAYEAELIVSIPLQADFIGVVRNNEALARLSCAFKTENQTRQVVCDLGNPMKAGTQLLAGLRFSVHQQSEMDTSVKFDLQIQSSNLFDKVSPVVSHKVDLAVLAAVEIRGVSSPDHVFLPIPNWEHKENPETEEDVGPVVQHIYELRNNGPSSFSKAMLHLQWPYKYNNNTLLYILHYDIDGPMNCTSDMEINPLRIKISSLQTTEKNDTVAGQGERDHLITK
Sequence of Integrin alpha-V/beta-3 (P06756 891-1048 limits assumed): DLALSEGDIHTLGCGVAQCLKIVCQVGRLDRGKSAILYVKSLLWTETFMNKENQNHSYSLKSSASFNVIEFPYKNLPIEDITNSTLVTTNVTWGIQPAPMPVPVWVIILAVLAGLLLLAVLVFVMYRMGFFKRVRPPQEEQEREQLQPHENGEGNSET

`O=C(CN1C(=O)N[C@@H](CCCNc2ncccn2)C1=O)NCC(NC(=O)OCc1ccccc1)C(=O)O` (some centres not stated) gave an IC50 (Integrin alpha-V/beta-3) of 1660 nM and an IC50 [1] of over 10000 nM.
Compound `N=C(N)NCCC[C@@H]1NC(=O)N(CC(=O)NCC(NC(=O)OCc2ccccc2)C(=O)O)C1=O` (some centres not stated) has an IC50 (Integrin alpha-V/beta-3) of 80 nM and an IC50 [1] of 2400 nM.
Work on `CCCCS(=O)(=O)NC(CNC(=O)CN1C(=O)N[C@@H](CCCN=C(N)N)C1=O)C(=O)O` (some centres not stated) yielded an IC50 (Integrin alpha-V/beta-3) of 760 nM and an IC50 [1] of 350 nM.
`O=C(CN1C(=O)N[C@@H](CCCNC2=NCCN2)C1=O)NCC(NC(=O)OCc1ccccc1)C(=O)O` (some centres not stated) gave an IC50 (Integrin alpha-V/beta-3) of 20 nM and an IC50 [1] of over 10000 nM.
`N=C(N)NCCCC[C@@H]1NC(=O)N(CC(=O)NCC(NC(=O)OCc2ccccc2)C(=O)O)C1=O` (some centres not stated) gave an IC50 (Integrin alpha-V/beta-3) of 200 nM and an IC50 [1] of 850 nM.
`N=C(N)NCCC[C@@H]1NC(=O)N(CC(=O)NCC(NC(=O)CCc2ccccc2)C(=O)O)C1=O` (some centres not stated) was tested, and the IC50 (Integrin alpha-V/beta-3) was 350 nM and the IC50 [1] was 550 nM.
Compound `O=C(CN1C(=O)N[C@@H](CC(=O)NNC2=NCCN2)C1=O)NCC(NC(=O)OCc1ccccc1)C(=O)O` (some centres not stated) has an IC50 (Integrin alpha-V/beta-3) of 580 nM and an IC50 [1] of over 10000 nM.
Work on `O=C(CN1C(=O)N[C@@H](CCCNc2nc3ccccc3[nH]2)C1=O)NCC(NC(=O)OCc1ccccc1)C(=O)O` (some centres not stated) yielded an IC50 (Integrin alpha-V/beta-3) of 40 nM and an IC50 [1] of over 10000 nM.
Compound `N=C(N)NCCC[C@@H]1NC(=O)N(CC(=O)NCC(NC(=O)NCc2ccccc2)C(=O)O)C1=O` (some centres not stated) has an IC50 (Integrin alpha-V/beta-3) of 570 nM and an IC50 [1] of 180 nM.
`N=C(N)NC[C@@H]1NC(=O)N(CC(=O)NCC(NC(=O)OCc2ccccc2)C(=O)O)C1=O` (some centres not stated) gave an IC50 (Integrin alpha-V/beta-3) of 15000 nM and an IC50 [1] of 10000 nM.
Compound `O=C(C[C@@H]1NC(=O)N(CC(=O)NCC(NC(=O)OCc2ccccc2)C(=O)O)C1=O)NCc1nc2ccccc2[nH]1` (some centres not stated) has an IC50 (Integrin alpha-V/beta-3) of 15000 nM.
`N=C(N)NCC[C@@H]1NC(=O)N(CC(=O)NCC(NC(=O)OCc2ccccc2)C(=O)O)C1=O` (some centres not stated) was tested, and the IC50 (Integrin alpha-V/beta-3) was 5000 nM and the IC50 [1] was 10000 nM.
`N=C(N)NCCC[C@@H]1NC(=O)N(CC(=O)NCC(/N=C(\S)NCc2ccccc2)C(=O)O)C1=O` (some centres not stated) showed an IC50 (Integrin alpha-V/beta-3) of 3000 nM and an IC50 [1] of 10000 nM.
Work on `N=C(N)NCCC[C@@H]1NC(=O)N(CC(=O)NCC(NC(=O)c2ccc3ccccc3c2)C(=O)O)C1=O` (some centres not stated) yielded an IC50 (Integrin alpha-V/beta-3) of 200 nM and an IC50 [1] of 200 nM.
